Test results reported in patent US20180085356A1, “METHOD OF TREATING DISEASE CHARACTERISED BY PROTEIN AGGREGATE DEPOSITION IN NEURONAL CELLS” (CHRONOS THERAPEUTICS LIMITED, priority 2013, published 2018).

How the values were obtained:
S. cerevisiae = test: Chronological lifespan of ageing stationary phase yeast culture (outgrowth viability); type: cell-based, Saccharomyces cerevisiae; conditions: 40 μM tacrolimus
Experimental: Analysis of chronological lifespan in yeast involves assessment of the viability of a stationary phase culture over time. Yeast are stored in glycerol stocks at −80° C., inoculated into YPD (Yeast extract-Peptone-Dextrose) and incubated overnight. From this culture, a 1/25 dilution is prepared to produce an ageing culture that is incubated at 30° C. throughout the duration of the experiment. The first 24 hours of yeast growth are assessed in Complete Synthetic Media (CSM) to confirm that the culture has reached stationary phase. After 24 hours, when the culture has completed the exponential growth phase and has entered stationary phase, its viability can then be assessed. Viability is measured by taking a 5 μl sample of the ageing culture and diluting this into a total volume of 150 μlYPD. Growth of this “outgrowth culture” is measured using the Bioscreen-C MBR machine that both incubates the plates and measures optical turbidity every 20 minutes. Comparison of the viability curves of outgrowth cultures taken over several successive days can be used to observe the reduction in viability of the stationary phase culture over time. Specifically, the interval between the time taken for the outgrowth culture to reach OD600=0.6 on day 1, and the time taken to reach OD600=0.6 on a later day (for example day 7) can be used as a measure of the “ageing rate” of the culture. […]

[1] = system: C. elegans expressing human alpha-synuclein in the body wall muscle; test: C. elegans lifespan assay, alpha-synuclein strain; type: in vivo, Caenorhabditis elegans; conditions: p<0.05 DMSO vs. Tacrolimus
Experimental: (§1) Tacrolimus was tested in a number of disease models using the nematode worm, Caenorhabditis elegans, in which aggregate-prone proteins associated with neurodegenerative diseases are expressed in certain cell types. The effect of tacrolimus was determined by measuring the lifespan of worms in the presence and absence of tacrolimus, using the following general methodology. All of the worms tested using these assays also contained, in addition to the transgene expressing the disease-related protein, a mutation in the bus-5 gene which confers drug-sensitivity.
(§2) C. elegans cultures were synchronised by incubating an asynchronous culture in basic sodium hypochlorite solution to kill everything but the bleach-resistant mature eggs. The eggs were added on to agar plates and then allowed to hatch and develop in the presence of the test compound (or vehicle) and bacterial food source. […] From this point on, each ageing population was inspected at regular intervals (e.g. daily) and viability assessed by counting the number of dead worms.
(§3) The cumulative number of dead worms for each population was used to generate a survival/viability plot to determine chronological lifespan (CLS). Survival was analysed using the Kaplan-Meier log-rank survival analysis method, using the Online Application for Survival (OASIS; see http://sbi.postech.ac.kr/oasis). […]

[2] = system: C. elegans expressing 35 polyglutamine tract fused to YFP (Q35) in the body wall muscle; test: C. elegans lifespan assay, polyglutamine Q35 strain; type: in vivo, Caenorhabditis elegans; conditions: p<0.05 vs. Q35 DMSO
Experimental: as §1, §2, §3

caspase-3 = test: Motor neuron culture with Aβ1-42 insult: caspase-3 induction; type: cell-based, rat; conditions: all 3 concentrations, greatest effect at 100 nM; control increased by 91%
Experimental: Primary motor neuron (MN) cultures generated from rat spinal cord were treated with 20 μM amyloid beta 1-42 peptide (Aβ1-42). This insult causes an acute increase in TDP-43 levels in the cells and serves as a model for the TDP-43 mislocalisation, aggregation and toxicity observed in the motor neurons of ALS patients (reviewed in Callizot et al, poster “Amyloid peptide and cytoplasmic TDP-43 accumulation in pathogenesis of ALS: an in vitro study”, http://www.neuro-sys.fr/IMG/pdf/poster_adpd2017_tdp43.pdf). This model was used to determine the effect of tacrolimus on TDP-43 toxicity in motor neurons.
A separate group of cells was incubated with a) mouse monoclonal anti-microtubule-associated-protein 2 (MAP-2) antibody, and b) rabbit polyclonal anti-caspase-3 antibody. This group was used to determine the number of caspase-3-positive MN, i.e. the number of overlapping MAP-2 and caspase-3-positive cells.

TDP-43(Q331K) mice = test: Rotarod testing of TDP-43(Q331K) transgenic mice; type: in vivo, mouse; conditions: tacrolimus 0.25, 1.25 and 2.5 mg/kg p.o. 6 days a week for 70 weeks vs. vehicle
ALS = conditions: Pong et al., Current Drug Targets 2003; cited from earlier work

Compound: C=CC[C@@H]1/C=C(\C)C[C@H](C)C[C@H](OC)[C@H]2O[C@@](O)(C(=O)C(=O)N3CCCC[C@H]3C(=O)O[C@H](/C(C)=C/[C@@H]3CC[C@@H](O)[C@H](OC)C3)[C@H](C)[C@@H](O)CC1=O)[C@H](C)C[C@@H]2OC [tacrolimus, Tacrolimus]
- rate of ageing / chronological lifespan of stationary phase yeast culture (S. cerevisiae): significantly delays the rate of ageing and extends the chronological lifespan
- interval between the x-intercepts at OD600=0.6 on days 1 and 9 (S. cerevisiae; control without tacrolimus 287 minutes): 63 min
- lifespan [1]: significantly increasing the lifespan
- lifespan [2]: significantly increases lifespan
- caspase-3 levels in response to Aβ1-42 insult (caspase-3): increase was less
- progression of motor decline (rotarod latency) (TDP-43(Q331K) mice): delays the progression of motor decline
- efficacy in the treatment of ALS (ALS): ineffective
